Measurements: ChEMBL document CHEMBL1151158, “New nitrogenous Germacranes from a Thai marine sponge, Axinyssa n. sp” (2004)
Calls of active or inactive are those of the source. The rule behind the calls is not given here.

Legend:
Type in all cases: functional
Candida albicans = experiment: Antimicrobial activity against Candida albicans ATCC 10231 at 500 ug/disk after 24 hrs by agar disk diffusion method
Bacillus subtilis = experiment: Antimicrobial activity against Bacillus subtilis ATCC 6633 at 500 ug/disk after 24 hrs by agar disk diffusion method
Staphylococcus aureus = experiment: Antimicrobial activity against Staphylococcus aureus ATCC 25923 at 500 ug/disk after 24 hrs by agar disk diffusion method

Question: For C/C1=C/C[C@H](C(C)(C)N)CC/C(C)=C\CC1, which zone of inhibition at 500 µg/disc (Candida albicans; ATCC 10231, 24 h, read-out: IZ) is on record?
Answer: The zone of inhibition at 500 µg/disc was 27 mm.

Question: What about the zone of inhibition at 500 µg/disc (Bacillus subtilis; ATCC 6633, 24 h, read-out: IZ) of the same compound?
Answer: Its zone of inhibition at 500 µg/disc is 22 mm.

Question: And the zone of inhibition at 500 µg/disc (Staphylococcus aureus; ATCC 25923, 24 h, read-out: IZ)?
Answer: Its zone of inhibition at 500 µg/disc is 23 mm.

Question: Which Activity (Candida albicans) does the source give for C/C1=C/C[C@H](C(C)(C)NC(=O)NC(C)(C)[C@H]2C/C=C(/C)CC/C=C(/C)CC2)CC/C(C)=C\CC1 here?
Answer: Its Activity is “inactive”.

Question: And the Activity (Bacillus subtilis)?
Answer: Its Activity is “inactive”.

Question: And the Activity (Staphylococcus aureus)?
Answer: Its Activity is “inactive”.
